Laboratory results: article PMC12096669, “Structural isomerisation affects the antitubercular activity of adamantyl-isoxyl adducts” (Journal of Enzyme Inhibition and Medicinal Chemistry, 2025)
Converted amounts (≈) assume the structure as drawn. Read-outs that look alike come from different tables or passages of the source.

Legend:
A. baumannii NCTC 12156 = experiment: Non-mycobacterial REMA assay; type: cell-based; details: Acinetobacter baumannii, NCTC12156, read-out: Minimum inhibitory concentration 95%
S. aureus NCTC 2981 = experiment: Non-mycobacterial REMA assay; type: cell-based; details: Staphylococcus aureus, NCTC2981, read-out: Minimum inhibitory concentration 95%
E. cloacae NCTC 10005 = experiment: Non-mycobacterial REMA assay; type: cell-based; details: Enterobacter cloacae, NCTC10005, read-out: Minimum inhibitory concentration 95%
Mtb mc^27902 pMV261 [1] = experiment: microbe, parasite or virus in culture; type: cell-based; details: Mycobacterium tuberculosis
K. pneumoniae NCTC 9633 = experiment: Non-mycobacterial REMA assay; type: cell-based; details: Klebsiella pneumoniae, NCTC9633, read-out: Minimum inhibitory concentration 95%
E. faecalis NCTC 775 = experiment: Non-mycobacterial REMA assay; type: cell-based; details: Enterococcus faecalis, NCTC775, read-out: Minimum inhibitory concentration 95%
[2] = test system: RAW264.7 murine macrophage cells; experiment: cells; type: cell-based; details: for viability at 100 µM / IC50: Mus musculus; for viability at 100 µM: RAW264.7, 96 h, read-out: MTS percentage survival @ 100 µM; for IC50: RAW264.7 macrophages, 0 to 100 µM, read-out: IC50 (cell viability, MTS assay); for selectivity index (SI): from RAW264.7 IC50 and Mtb MIC95
E. coli K12 = experiment: Non-mycobacterial REMA assay; type: cell-based; details: Escherichia coli, read-out: Minimum inhibitory concentration 95%
Procedure: (§1) Bacterial minimum inhibition concentrations (MIC) were determined using the Resazurin Microtiter Assay (REMA) method according to Palomino et al.[28] Stock solutions of the tested compounds were prepared in sterile dimethyl sulfoxide (DMSO), then diluted in 7H9OPALPen^1Cyc^10(Kan^25) to obtain a final drug concentration range of 32–0.032 μg/mL. A suspension of the test Mycobacterium was cultured in 7H9OPALPen^1Cyc^10(Kan^25) containing 0.05% v/v Tween^80 for one week at 37 °C, 5% CO2. The bacterial suspension was adjusted to 0.5 McFarland and diluted in 7H9OPALPen^1Cyc^10(Kan^25) 1:25. 100 μL of the inoculum was added to each well of a 96-well microplate together with 100 μL of the compound titration. The plate was incubated at 37 °C, 5% CO2. After 5 days, 10.5 μL 0.1% (w/v) sterile resazurin (solubilised in sterile PBS containing 0.02% v/v Tween^80) was added. Reduced resazurin was detected using fluorescence (Ex/Em 530/590 nm) in a FLUOstar Optima, BMG Labtech. All titre measurements were plotted in SigmaPlot™ and 4-parameter logistic (4PL) model regressions conducted. The relative MIC95 of each curve was calculated and averaged (Table 1). Testing was performed in duplicate with two independent biological repeats. […] Though, for these cultures, dilutions were performed at 1:125 prior to inoculation of the plate and incubation for 4 h (Supplementary Table 3). Known antitubercular agents used in this study were rifampicin (RIF), isoniazid (INH), ISO, EMB, ethionamide (ETH), linezolid (LZD), delamanid (DEL) and moxifloxacin (MOX).

S. enterica NCTC 6754 = experiment: Non-mycobacterial REMA assay; type: cell-based; details: Salmonella enterica, NCTC6754, read-out: Minimum inhibitory concentration 95%
Procedure: as §1

B. cereus NCTC 7464 = experiment: Non-mycobacterial REMA assay; type: cell-based; details: Bacillus cereus, NCTC7464, read-out: Minimum inhibitory concentration 95%
E. faecium NCTC 7171 = experiment: Non-mycobacterial REMA assay; type: cell-based; details: Enterococcus faecium, NCTC7171, read-out: Minimum inhibitory concentration 95%
[3] = test system: AC10 hybrid adult ventricular cardiomyocytes; experiment: MTS cytotoxicity assay, cardiomyocytes; type: cell-based; details: Homo sapiens, AC10 cardiac, 96 h, read-out: MTS percentage survival @ 100 µM
S. pyogenes NCTC 8198 = experiment: Non-mycobacterial REMA assay; type: cell-based; details: Streptococcus pyogenes, NCTC8198, read-out: Minimum inhibitory concentration 95%
S. agalactiae NCTC 8181 = experiment: Non-mycobacterial REMA assay; type: cell-based; details: Streptococcus agalactiae, NCTC8181, read-out: Minimum inhibitory concentration 95%
[4] = test system: HepG2 human liver cancer cell line; experiment: MTS cytotoxicity assay, liver cells; type: cell-based; details: 96 h, read-out: MTS percentage survival @ 100 µM
P. aeruginosa DSM 19880 = experiment: Non-mycobacterial REMA assay; type: cell-based; details: Pseudomonas aeruginosa, DSM19880, read-out: Minimum inhibitory concentration 95%
Mtb mc^27902 pMV261 [5] = type: cell-based, Mycobacterium tuberculosis
Mtb mc^27902 pMV261 [6] = type: cell-based, Mycobacterium tuberculosis; details: in the presence of glucose; 37 °C, 30 min
M. bovis BCG = details: library of 52,000 compounds; cited from earlier work
[7] = mc^27902 pMV261, REMA, read-out: Mtb MIC95
[8] = values used for the SI, in brackets, […], read-out: MIC95
[9] = values used for the SI, […], read-out: MIC95
[10] = RAW264.7 macrophage, 100 µM, 96 h

SMILES	MIC (A. baumannii NCTC 12156) [µg/mL]	MIC (S. aureus NCTC 2981) [µg/mL]	MIC (E. cloacae NCTC 10005) [µg/mL]	MIC (Mtb mc^27902 pMV261 [1]; [7]) [µg/mL]	MIC (K. pneumoniae NCTC 9633) [µg/mL]	MIC (E. faecalis NCTC 775) [µg/mL]	viability at 100 µM [2, 10] [%]	IC50 [2] [µM]	MIC (E. coli K12) [µg/mL]	MIC (S. enterica NCTC 6754) [µg/mL]	MIC (B. cereus NCTC 7464) [µg/mL]	MIC (E. faecium NCTC 7171) [µg/mL]	viability at 100 µM [3] [%]	MIC (S. pyogenes NCTC 8198) [µg/mL]	MIC (S. agalactiae NCTC 8181) [µg/mL]	viability at 100 µM [4] [%]	MIC (P. aeruginosa DSM 19880) [µg/mL]	also measured
CC(C)=CCC/C(C)=C/CNCCNC1C2CC3CC(C2)CC1C3 (centres unmarked) [SQ109, N-Adamantan-2-yl-N’-((E)-3,7-dimethylocta-2,6-dienyl)ethane-1,2-diamine]	20.7 (≈ 62.7 µM)	16.9 (≈ 51 µM)	16.8 (≈ 50.9 µM)	0.33	> 32	21.1 (≈ 63.8 µM)	61.1 ± 2.9	> 100	17.4 (≈ 52.5 µM)	> 32	> 32	20.1 (≈ 60.8 µM)	40.2 ± 2.3	> 32	> 32	15.1 ± 4.1	> 32	MIC (Mtb mc^27902 pMV261 [1]; [8]): 0.12 µg/mL; MIC (Mtb mc^27902 pMV261 [1]; [9]): 0.36 µM; selectivity index (SI) [2]: > 100
CC(C)CCOc1ccc(NC(=S)NC23CC4CC(CC(C4)C2)C3)cc1 [Ad-1-ISO, 1-((3s,5s,7s)-adamantan-1-yl)-3–(4-(isopentyloxy)phenyl)thiourea]	> 32	> 32	> 32	1.08	> 32	> 32	73.8 ± 7.5	> 100	> 32	> 32	> 32	> 32	55 ± 13.2	> 32	> 32	16.1 ± 7.2	> 32	selectivity index (SI) [2]: > 100; effect on mycolic acid biosynthesis (FAMEs/MAMEs, TLC/autoradiography) (Mtb mc^27902 pMV261 [5]): Depletion of mycolates into the cell wall was only observed at the highest concentrations tested; TMM levels (TLC) (Mtb mc^27902 pMV261 [5]; at the highest concentrations, […]): slight increase in the TMM levels; efflux of EtBr (Mtb mc^27902 pMV261 [6]): significantly increased the overall efflux of EtBr
O=C(N/N=C/c1cccc(F)c1)C12CC3CC(CC(C3)C1)C2 [adamantyl-hydrazone]	–	–	–	–	–	–	–	–	–	–	–	–	–	–	–	–	–	MIC (M. bovis BCG): < 2 µg/mL
CCc1cc(C(N)=S)ccn1 [ETH, ethionamide]	> 32	> 32	> 32	–	> 32	> 32	–	–	> 32	> 32	> 32	> 32	90.5 ± 4.7	> 32	> 32	92.7 ± 7	> 32	MIC (Mtb mc^27902 pMV261 [1]; read-out: Mtb MIC95): 1.05 µg/mL; viability at 100 µM [2]: 100 ± 5.6%
CO[C@H]1/C=C/O[C@@]2(C)Oc3c(C)c(O)c4c(O)c(c(/C=N/N5CCN(C)CC5)c(O)c4c3C2=O)NC(=O)/C(C)=C\C=C\[C@H](C)[C@H](O)[C@@H](C)[C@@H](O)[C@@H](C)[C@H](OC(C)=O)[C@@H]1C [RIF, rifampicin]	1.36 (≈ 1.66 µM)	< 0.0125	> 12.8	0.04	> 12.8	> 12.8	66.3 ± 5	–	3.03 (≈ 3.69 µM)	12.8 (≈ 15.5 µM)	0.045 (≈ 0.0547 µM)	1.73 (≈ 2.11 µM)	40.7 ± 6.6	6.16 (≈ 7.48 µM)	0.08 (≈ 0.0972 µM)	47.7 ± 3.2	> 12.8	–
NNC(=O)c1ccncc1 [INH, isoniazid]	> 32	> 32	> 32	0.04	> 32	> 32	96.3 ± 2	–	> 32	> 32	> 32	> 32	92.6 ± 1.2	> 32	> 32	97 ± 3.8	> 32	–
CC[C@@H](CO)NCCN[C@@H](CC)CO [EMB, Ethambutol]	> 32	> 32	> 32	1.99	> 32	> 32	88.5 ± 8.6	–	> 32	> 32	> 32	> 32	93.7 ± 2.7	> 32	> 32	95.2 ± 6	> 32	–
CC(=O)NC[C@H]1CN(c2ccc(N3CCOCC3)c(F)c2)C(=O)O1 [LZD, linezolid]	31.1 (≈ 92.1 µM)	23.7 (≈ 70.3 µM)	> 32	0.91	> 32	0.921 (≈ 2.73 µM)	38.3	16.2	> 32	> 32	1.75 (≈ 5.2 µM)	0.158 (≈ 0.468 µM)	103 ± 1.8	0.543 (≈ 1.61 µM)	2.1 (≈ 6.23 µM)	105 ± 5.1	> 32	MIC (Mtb mc^27902 pMV261 [1]; [8]): 0.55 µg/mL; MIC (Mtb mc^27902 pMV261 [1]; [9]): 1.63 µM
